Reference: patent publication US20210361688A1 (priority 2020, published 2021)

What was measured:
[1] = Estimated ivermectin concentration delivered into the respiratory pathways per nebulization; parameters: species or system human; conditions: about 10% of nebulized solution reaches the respiratory pathways; approx. 3 mg into 150 cc dead space
Description: 3 mL of the solution was administered to the subject directly into the lungs in the form of an inhalable mist.

[2] = test system: SARS-CoV-2 isolate Australia/VIC01/2020; conditions: cited from earlier work
[3] = cited from earlier work
pseudorabies virus (PRV) = conditions: mouse, in vivo; cited from earlier work
[4] = ivermectin 5 μM from 2 hours post-infection, 24 h, Vero-hSLAM cells

ivermectin
ivermectin delivered per cc of dead space per nebulization [1]: approximately 0.02 mg per cc | IC50 concentration necessary to inhibit viral replication ([2]; as quoted in Example 2): 0.00175 mg/cc | reduction in viral RNA versus DMSO control, cell associated viral RNA (total virus) [2, 4]: 99.8% | reduction in viral RNA versus DMSO control, supernatant (released virions) [2, 4]: 93% | fold reduction of viral RNA ([2]; ivermectin 5 μM, by hour 48, effect maintained at 72 hours): 5000 fold | IC50 ([2]; serial dilutions of ivermectin, Vero-hSLAM cells, read-out: IC50 against SARS-CoV-2): ~2 µM | tolerability of high doses ([3]; adults or children): well tolerated | maximum plasma concentration ([3]; humans, highest reported dose of approximately 1700 μg/kg): 0.28 µM | survival in PRV-infected mice (pseudorabies virus (PRV)): increase survival
